From the METLIN SMRT retention time set (Domingo-Almenara et al. 2019)

Experiment: gradient 5% acetonitrile 3 min, to 50% in 2 min, to 85% in 15 min, held 3 min, 100 µL/min
Conditions: column: Zorbax Extend-C18 2.1 x 50 mm; eluents: water / acetonitrile, 0.1% formic acid
In short: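 In both positive and negative ionization mode, a quadrupole time-of-flight mass spectrometer coupled to HPLC analyzed pure standards run in mixtures of ~100 molecules. The Zorbax Extend-C18 column (2.1 × 50 mm, 1.8 μm) was operated at 100 μL/min with water and acetonitrile, each containing 0.1% formic acid. The dead volume was 40 μL and the dwell volume 900 μL. Retention time came from adduct peaks that were computationally picked and individually inspected by hand.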

Row | SMILES | RP-LC retention time
1 | CNC(=O)C1CC(=O)N(c2ccc(C)cc2)C1 (stereo not given) | 626 s
2 | COc1ccc(NC(=O)[C@@H]2c3ccccc3C(=O)N3CCCC[C@@H]23)c(OC)c1 | 752 s
3 | O=C(c1ccncc1)N1CCc2c([nH]c3ccccc23)C1c1ccccc1 (stereo not given) | 862 s
4 | CCCCOc1ccc(CNC(=O)c2cc3c(=O)n(C)ccc3n2C)cc1 | 848 s
5 | COc1cccc(-c2noc(C3CCCN3C(=O)Nc3ccc(OC)cc3C)n2)c1 (stereo not given) | 900 s
6 | COc1ccc(N2CCn3c(SCC(=O)Nc4nc5ccccc5s4)nnc32)cc1 | 742 s
7 | Cc1ccn2cc(-c3ccc(NS(=O)(=O)c4cccc(Cl)c4)cc3)nc2n1 | 679 s
8 | Cc1c(-c2ccnc(N3CCN(C)CC3)n2)cnc2nc(-c3ccncc3)nn12 | 552 s
9 | Cc1cc(F)ccc1NC(=O)CCNc1cnc2cnccn12 | 578 s
10 | CCOC(=O)C1CCN(C(=O)Cn2c(=O)c3nnc(C)n3c3ncccc32)CC1 | 780 s
11 | Cc1cccc(NC(=O)c2cccn2Cc2noc(C3CC3)n2)c1C | 954 s
12 | COc1ccccc1Oc1c(NS(=O)(=O)c2ccc(C(C)(C)C)cc2)nc(-c2ncccn2)nc1OCCO | 939 s
13 | Cc1cc(OC(C)C(=O)Nc2ccnn2Cc2ccco2)ccc1Cl (stereo not given) | 921 s
14 | Cc1nc(-c2cn(C)c3ncccc23)sc1C(=O)NCc1ccccc1C(F)(F)F | 998 s
15 | Cc1cc(C)n(-c2cc(NCCNC(=O)c3ccc(F)cc3F)ncn2)n1 | 718 s
16 | Cc1ccc(-c2nnc(Cc3nc(-c4ccccn4)no3)o2)cc1F | 822 s
17 | COc1cccc(C2Cn3nnc(-c4nc(-c5ccsc5)no4)c3CO2)c1 (stereo not given) | 1070 s
18 | Cc1ccc(-c2nc(CCN(C)C(=O)NCCc3ccccc3)no2)cc1 | 956 s
19 | Cc1ccc(-c2nc(NC(=O)c3cc(C)on3)sc2C)cc1 | 1090 s
20 | CCc1nc2nc3c(c(N4CCN(c5ccccn5)CC4)n2n1)CCC3 | 581 s
21 | O=C(O)c1nnn(-c2cccc(Cl)c2)c1C(F)(F)F | 806 s
22 | O=c1[nH]c2ccc(NCc3ccc(Cl)c(Cl)c3)cc2[nH]1 | 707 s
23 | O=C(Cn1nc(Cc2ccncc2)c2ccccc2c1=O)Nc1ccc(Cl)cn1 | 618 s
24 | CCc1ccc(Oc2cc(N3CCC(C(=O)NCC(C)c4ccccc4)CC3)ncn2)cc1 (stereo not given) | 1090 s
25 | COC(=O)c1cccc(NC(=O)c2csc(-c3cn(C)c4ncccc34)n2)c1 | 984 s

Row | SMILES | RP-LC retention time
26 | CC(C)[C@@H](C(=O)NCCc1c[nH]c2ccc(F)cc12)n1nnc2ccccc2c1=O | 874 s
27 | COc1ccc(CC(=O)N2CCC3(C2)C(=O)N(C)c2ccccc23)cc1 (stereo not given) | 782 s
28 | Cc1noc(C)c1CCC(=O)NCCOc1cccc2cccnc12 | 548 s
29 | CCc1ccc(CNC(=O)c2cc3n(n2)CC(C)(C(=O)NCc2ccc(F)cc2)N(C)C3=O)cc1 (stereo not given) | 858 s
30 | COc1ccc(NS(=O)(=O)c2cc(-c3cc(C(F)(F)F)on3)sc2C)cc1Cl | 1140 s
31 | CCOc1ccccc1NC(=O)Cc1csc2nc(-c3ccccc3)cn12 | 894 s
32 | CCN(CC)C(=O)c1cc2c(s1)CCC(C(=O)Nc1ccc3c(c1)OCO3)C2 (stereo not given) | 860 s
33 | CCC(=O)N1CCc2c(sc3ncnc(N)c23)C1 | 575 s
34 | Cc1ccsc1C(=O)NC1(c2nc(-c3cnccn3)no2)CCCCC1 | 806 s
35 | CC1SC(C)C(=O)N(CC(=O)NCc2ccco2)C1=O (stereo not given) | 685 s
36 | COc1ccc(-c2cc(C(=O)Nc3cc(C)ccc3C)nn2C2CCS(=O)(=O)C2)cc1 (stereo not given) | 982 s
37 | CCOc1ccc(-c2nc(NC(=O)Cc3csc(C)n3)sc2C)cc1 | 938 s
38 | COc1cc(NC(=O)NC2CCN(c3cc(C)cc(C)c3)C2=O)cc(OC)c1 (stereo not given) | 818 s
39 | Cc1cc(C)cc(NC(=O)CN2CCC(C(=O)Nc3ccc(C(N)=O)cc3)CC2)c1 | 571 s
40 | COc1ccc2[nH]c(=O)c(CCC(=O)NCc3cccnc3)cc2c1 | 571 s
41 | O=c1c2cc(-c3ccc(Cl)cc3)nn2ccn1Cc1ccc(F)cc1 | 1120 s
42 | CCCCc1ccc(NC(=O)Cn2nc3c(Sc4ccccc4)nccn3c2=O)cc1 | 1100 s
43 | COc1ccc(Cl)cc1NC(=O)c1csc(-c2cn(C)c3ncccc23)n1 | 1230 s
44 | COC1CCC12CCN(Cc1cccc(C#N)c1)CC2 (stereo not given) | 597 s
45 | O=S(=O)(Nc1ccc(Cn2cncn2)cc1)c1cccc(F)c1 | 705 s
46 | Cc1ccc(NC(=O)C(C)Oc2ccc(F)cc2)cc1C (stereo not given) | 956 s
47 | CC(C)N1CCN(c2ncccc2-c2nnc(-c3ccc(Cl)cc3)o2)CC1 | 670 s
48 | Cc1ccc(NC(=O)C2(c3ccc4c(c3)OC(F)(F)O4)CC2)nc1-c1cccc(C(=O)O)c1 | 1130 s
49 | Cn1nc(CNC(=O)c2ccc(F)c(F)c2)c2ccccc21 | 813 s
50 | Cc1nc2sc(C)c(C)n2c(=O)c1NC(=O)COc1ccc(Cl)cc1Cl | 827 s

Now from value to compound:

Row | RP-LC retention time | SMILES
51 | 863 s | Cc1oc(C2CCN(S(=O)(=O)c3ccc(Cl)cc3)CC2)nc1C(=O)N(C)C
52 | 728 s | COCCCNC(=O)C1CCN(c2ncccc2S(=O)(=O)N2CCCCC2)CC1
53 | 613 s | Cc1ccc(-n2ncc3c(NCCN4CCOCC4)ncnc32)cc1Cl
54 | 744 s | Cc1cc(C)cc(-n2ccn3c(CCC(=O)NCCc4c[nH]c5ccccc45)nnc3c2=O)c1
55 | 665 s | O=C(CCn1nnc2cc(S(=O)(=O)N3CCCCC3)ccc21)N1CCN(c2ccccn2)CC1
56 | 807 s | CC(C)c1ccccc1NC(=O)CN1C(=O)NC2(CCCCC2)C1=O
57 | 827 s | CC1(C)Cc2cccc(OCC(=O)N3CCC(c4nnc(-c5ccco5)s4)CC3)c2O1
58 | 1020 s | Cc1csc(-c2cc(S(=O)(=O)N3CCCCC3)cn2CC(=O)N2CCCCC2)n1
59 | 677 s | CC(=O)N1CCc2cc(N3CC(C(=O)Nc4ccccc4)CC3=O)ccc21 (stereo not given)
60 | 755 s | O=C(c1ccccc1Cl)N1CCN(Cc2noc3ccccc23)CC1
61 | 769 s | COCC1CCN(C(=O)NCc2cccc3ccccc23)CC1
62 | 631 s | O=C(c1ccco1)N1CCC2(CC1)NCCc1c2[nH]c2ccccc12
63 | 674 s | O=C(CC1CCCC1)NCc1cccnc1-c1ccc(F)cc1
64 | 588 s | O=C(c1cccnc1)N1CCN(c2nnnn2-c2ccccc2)CC1
65 | 912 s | O=C(Cn1nc(C(=O)N2CCCC2)c2ccccc21)Nc1cccc(C(F)(F)F)c1
66 | 673 s | CCOC(=O)C1CCN(C(=O)c2nc(-c3ccnc(N4CCCC4)c3)no2)CC1
67 | 759 s | O=C(Nc1nc2c(s1)CCCC2C(=O)N1CCOCC1)c1ccc(Cl)cc1 (stereo not given)
68 | 615 s | O=C(Cn1nc(-c2ccco2)ccc1=O)N1CCN(c2ncccn2)CC1
69 | 571 s | O=C([C@@H]1C[C@H](Oc2cccnc2)CN1C(=O)C1CC=CC1)N1CCCC1
70 | 746 s | O=C(Nc1cnc(N2CCOCC2)nc1)c1cc(F)ccc1Cl

Row | RP-LC retention time | SMILES
71 | 622 s | CSc1ccccc1CN1CCC(CNC(=O)C(=O)NCCC2=CCCCC2)CC1
72 | 600 s | CCCC(=O)N1CCCC1COc1ccc(C(=O)N2CCCC2)cc1 (stereo not given)
73 | 652 s | CC(C)C(=O)N1CCc2cc(CNS(=O)(=O)Cc3ccccc3)ccc21
74 | 606 s | COc1ccccc1N1CCN(Cc2nc3nc(C)cc(N4CCCC4)n3n2)CC1
75 | 612 s | CCOC(=O)c1noc2nc(C)nc(Nc3ccc(CN4CCN(CC)CC4)cc3)c12
76 | 703 s | NS(=O)(=O)c1ccc(NC(=O)C2CCCN(c3ccc(=O)n(-c4cccc(F)c4)n3)C2)cc1 (stereo not given)
77 | 1050 s | Cc1c(Cl)cccc1S(=O)(=O)N1CCC2(CC1)OCCS2
78 | 600 s | Cc1nnc2ccc(N3CCOCC3)nn12
79 | 642 s | O=C(CCC1CCCN(S(=O)(=O)c2ccccc2F)C1)NCCN1CCOCC1 (stereo not given)
80 | 797 s | O=C(c1cc2ccccc2[nH]1)N1CCN(C(=O)c2ccc(Br)o2)CC1
81 | 884 s | Cc1ccc(NC(=O)Cn2nc(N3CCOCC3)c3ccccc3c2=O)c(Br)c1
82 | 802 s | CC(C)Cn1nc2n(c1=O)CCN(S(=O)(=O)c1cc(F)ccc1F)CC2
83 | 580 s | CCN1CCN(C(=O)Cn2c3ccccc3c3cnn(C)c(=O)c32)CC1
84 | 1060 s | O=C(Cn1nc(N2CCSCC2)c2ccccc2c1=O)Nc1ccc(Br)cc1F
85 | 957 s | O=C(c1cccs1)N1CCCC(c2ccnc(Nc3cccc(F)c3)n2)C1 (stereo not given)
86 | 908 s | Cc1ccc(Cn2c(=O)c(N3CCN(C(=O)NCC4CCCO4)CC3)nc3ccccc32)cc1 (stereo not given)
87 | 751 s | Cc1cc(NC(=O)C2CCCN(c3ncnc4c3nc3n4CCCCC3)C2)no1 (stereo not given)
88 | 536 s | CC1CCCN(C(=O)CN2CCN(C)CC2)C1 (stereo not given)
89 | 769 s | COc1ccc(C2Cn3nnc(C(=O)N4CCC(C(=O)NC5CCCC5)CC4)c3CO2)cc1 (stereo not given)
90 | 677 s | Cc1cccc2nnc(N3CCC(C(=O)Nc4ccccc4F)CC3)n12
